Results from ChEMBL document CHEMBL4340531, “Synthesis and biological evaluation of solithromycin analogs against multidrug resistant pathogens” (Bioorg Med Chem Lett, 2019).
Values after ≈ are worked out from the molar mass of the structure shown.

Tests used:
Staphylococcus aureus [1] = experiment: Antibacterial activity against wild type Staphylococcus aureus ATCC 29213 incubated for 18 hrs by broth dilution method; assay type: functional; conditions: ATCC 29213, 18 h
Staphylococcus aureus [2] = experiment: Antibacterial activity against resistant Staphylococcus aureus UCN14 incubated for 18 hrs by broth dilution method; assay type: functional; conditions: UCN14, 18 h
Staphylococcus aureus [3] = experiment: Antibacterial activity against resistant Staphylococcus aureus UCN17 incubated for 18 hrs by broth dilution method; assay type: functional; conditions: UCN17, 18 h
Staphylococcus aureus [4] = experiment: Antibacterial activity against resistant Staphylococcus aureus UCN18 incubated for 18 hrs by broth dilution method; assay type: functional; conditions: UCN18, 18 h
Escherichia coli [5] = experiment: Antibacterial activity against resistant Escherichia coli DK incubated for 20 hrs by broth dilution method; assay type: functional
Escherichia coli [6] = experiment: Antibacterial activity against resistant Escherichia coli DK3535 incubated for 20 hrs by broth dilution method; assay type: functional; conditions: DK3535, 20 h
Escherichia coli [7] = experiment: Antibacterial activity against resistant Escherichia coli DK2058G incubated for 20 hrs by broth dilution method; assay type: functional
Escherichia coli [8] = experiment: Antibacterial activity against resistant Escherichia coli SQ171 incubated for 20 hrs by broth dilution method; assay type: functional; conditions: SQ171, 20 h
Escherichia coli [9] = experiment: Antibacterial activity against resistant Escherichia coli SQ1712058G incubated for 20 hrs by broth dilution method; assay type: functional
Acinetobacter baumannii [10] = experiment: Antibacterial activity against multi drug resistant Acinetobacter baumannii ATCC 19606 incubated for 24 hrs by broth dilution method; assay type: functional; conditions: ATCC 19606 = CIP 70.34 = JCM 6841, 24 h
Enterococcus faecium [11] = experiment: Antibacterial activity against multi drug resistant Enterococcus faecium NCTC 7171 incubated for 24 hrs by broth dilution method; assay type: functional; conditions: NCTC 7171, 24 h
Enterococcus faecium [12] = experiment: Potency index, ratio of solithromycin MIC to compound MIC for multi drug resistant Enterococcus faecium NCTC 7171; assay type: functional
Escherichia coli [13] = experiment: Potency index, ratio of solithromycin MIC to compound MIC for resistant Escherichia coli SQ171; assay type: functional
Escherichia coli [14] = experiment: Potency index, ratio of solithromycin MIC to compound MIC for resistant Escherichia coli SQ1712058G; assay type: functional
[15] = Selectivity index, ratio of CC50 for African green monkey Vero cells to MIC for multi drug resistant Enterococcus faecium NCTC 7171; assay type: toxicity; conditions: read-out: Selectivity Index
[16] = Cytotoxicity against African green monkey Vero cells assessed as reduction in cell viability after 72 hrs by MTS/PMS assay; assay type: cell-based; conditions: chlorocebus sabaeus
Acinetobacter baumannii [17] = experiment: Potency index, ratio of solithromycin MIC to compound MIC for multidrug-resistant Acinetobacter baumannii ATCC 19606; assay type: functional, ATCC 19606 = CIP 70.34 = JCM 6841
Escherichia coli [18] = experiment: Potency index, ratio of solithromycin MIC to compound MIC for resistant Escherichia coli DK; assay type: functional
Escherichia coli [19] = experiment: Potency index, ratio of solithromycin MIC to compound MIC for resistant Escherichia coli DK3535; assay type: functional
Staphylococcus aureus [20] = experiment: Potency index, ratio of solithromycin MIC to compound MIC for wild type Staphylococcus aureus ATCC 29213; assay type: functional

| Compound | MIC (Staphylococcus aureus [1]) [µg/mL] | MIC (Staphylococcus aureus [2]) [µg/mL] | MIC (Staphylococcus aureus [3]) [µg/mL] | MIC (Staphylococcus aureus [4]) [µg/mL] | MIC (Escherichia coli [5]) [µg/mL] | MIC (Escherichia coli [6]) [µg/mL] | MIC (Escherichia coli [7]) [µg/mL] | MIC (Escherichia coli [8]) [µg/mL] | MIC (Escherichia coli [9]) [µg/mL] | MIC (Acinetobacter baumannii [10]) [µg/mL] | MIC (Enterococcus faecium [11]) [ng/mL] | Ratio (Enterococcus faecium [12]) | Ratio (Escherichia coli [13]) | Ratio (Escherichia coli [14]) | selectivity ratio [15] | CC50 at 72 h [16] [µg/mL] | Ratio (Acinetobacter baumannii [17]) | Ratio (Escherichia coli [18]) | Ratio (Escherichia coli [19]) | Ratio (Staphylococcus aureus [20]) |
| --- | --- | --- | --- | --- | --- | --- | --- | --- | --- | --- | --- | --- | --- | --- | --- | --- | --- | --- | --- | --- |
| CC[C@H]1OC(=O)[C@@](C)(F)C(=O)[C@H](C)[C@@H](O[C@@H]2O[C@H](C)C[C@H](N(C)C)[C@H]2O)[C@](C)(OC)C[C@@H](C)C(=O)[C@H](C)[C@H]2N(CCCCn3cc(COc4ccccc4)nn3)C(=O)O[C@]12C | ≤ 0.0625 | 64 (≈ 74.4 µM) | 8 (≈ 9.3 µM) | 4 (≈ 4.65 µM) | 2 (≈ 2.33 µM) | 4 (≈ 4.65 µM) | 4 (≈ 4.65 µM) | > 32 | > 32 | 25 (≈ 29.1 µM) | 12 (≈ 0.014 µM) | 2 | – | – | – | – | – | – | – | – |
| CC[C@H]1OC(=O)[C@@](C)(F)C(=O)[C@H](C)[C@@H](O[C@@H]2O[C@H](C)C[C@H](N(C)C)[C@H]2O)[C@](C)(OC)C[C@@H](C)C(=O)[C@H](C)[C@H]2N(CCCCn3cc(-c4ccc(OC)cc4)nn3)C(=O)O[C@]12C | ≤ 0.0625 | > 128 | 32 (≈ 37.2 µM) | 32 (≈ 37.2 µM) | 2 (≈ 2.33 µM) | 2 (≈ 2.33 µM) | 2 (≈ 2.33 µM) | 64 (≈ 74.4 µM) | > 64 | 25 (≈ 29.1 µM) | 1.5 (≈ 0.00174 µM) | 16 | – | – | – | – | – | – | – | – |
| CC[C@H]1OC(=O)[C@@](C)(F)C(=O)[C@H](C)[C@@H](O[C@@H]2O[C@H](C)C[C@H](N(C)C)[C@H]2O)[C@](C)(OC)C[C@@H](C)C(=O)[C@H](C)[C@H]2N(CCCCn3cc(-c4cc(OC)cc([N+](=O)[O-])c4)nn3)C(=O)O[C@]12C | ≤ 0.0625 | 64 (≈ 70.7 µM) | 32 (≈ 35.4 µM) | 32 (≈ 35.4 µM) | 4 (≈ 4.42 µM) | 2 (≈ 2.21 µM) | 2 (≈ 2.21 µM) | 16 (≈ 17.7 µM) | 8 (≈ 8.84 µM) | 50 (≈ 55.2 µM) | 1.5 (≈ 0.00166 µM) | 16 | 2 | 4 | – | – | – | – | – | – |
| CC[C@H]1OC(=O)[C@@](C)(F)C(=O)[C@H](C)[C@@H](O[C@@H]2O[C@H](C)C[C@H](N(C)C)[C@H]2O)[C@](C)(OC)C[C@@H](C)C(=O)[C@H](C)[C@H]2N(CCCCn3cc(-c4ccsc4)nn3)C(=O)O[C@]12C | 0.25 (≈ 0.299 µM) | 128 (≈ 153 µM) | 128 (≈ 153 µM) | 128 (≈ 153 µM) | 4 (≈ 4.78 µM) | 4 (≈ 4.78 µM) | 4 (≈ 4.78 µM) | 8 (≈ 9.57 µM) | > 64 | 12 (≈ 14.4 µM) | 0.094 (≈ 0.000112 µM) | 256 | – | – | 270000 | 25 (≈ 29.9 µM) | 2 | – | – | – |
| CC[C@H]1OC(=O)[C@@](C)(F)C(=O)[C@H](C)[C@@H](O[C@@H]2O[C@H](C)C[C@H](N(C)C)[C@H]2O)[C@](C)(OC)C[C@@H](C)C(=O)[C@H](C)[C@H]2N(CCCCn3cc(-c4cnc(N)s4)nn3)C(=O)O[C@]12C | 0.25 (≈ 0.293 µM) | 64 (≈ 75.1 µM) | 64 (≈ 75.1 µM) | 64 (≈ 75.1 µM) | 2 (≈ 2.35 µM) | 1 (≈ 1.17 µM) | 1 (≈ 1.17 µM) | > 32 | > 32 | > 50 | 24 (≈ 0.0282 µM) | – | – | – | – | – | – | – | – | – |
| CC[C@H]1OC(=O)[C@@](C)(F)C(=O)[C@H](C)[C@@H](O[C@@H]2O[C@H](C)C[C@H](N(C)C)[C@H]2O)[C@](C)(OC)C[C@@H](C)C(=O)[C@H](C)[C@H]2N(CCCCn3cc(-c4cc(O)cc([N+](=O)[O-])c4)nn3)C(=O)O[C@]12C | ≤ 0.0625 | 16 (≈ 18 µM) | 4 (≈ 4.49 µM) | 8 (≈ 8.98 µM) | 0.5 (≈ 0.561 µM) | 8 (≈ 8.98 µM) | 4 (≈ 4.49 µM) | 32 (≈ 35.9 µM) | > 32 | 25 (≈ 28.1 µM) | 0.0059 (≈ 6.62e-06 µM) | 4096 | – | – | 2e+06 | 12 (≈ 13.5 µM) | – | 4 | – | – |
| CC[C@H]1OC(=O)[C@@](C)(F)C(=O)[C@H](C)[C@@H](O[C@@H]2O[C@H](C)C[C@H](N(C)C)[C@H]2O)[C@](C)(OC)C[C@@H](C)C(=O)[C@H](C)[C@H]2N(CCCCn3cc(-c4ccc(N)cc4)nn3)C(=O)O[C@]12C | ≤ 0.031 | 16 (≈ 18.9 µM) | 8 (≈ 9.47 µM) | 16 (≈ 18.9 µM) | 1 (≈ 1.18 µM) | 1 (≈ 1.18 µM) | 4 (≈ 4.73 µM) | 16 (≈ 18.9 µM) | > 32 | 25 (≈ 29.6 µM) | 24 (≈ 0.0284 µM) | – | 2 | – | – | – | – | 2 | 2 | – |
| CC[C@H]1OC(=O)[C@@](C)(F)C(=O)[C@H](C)[C@@H](O[C@@H]2O[C@H](C)C[C@H](N(C)C)[C@H]2O)[C@](C)(OC)C[C@@H](C)C(=O)[C@H](C)[C@H]2N(CCCCn3cc(-c4cccs4)nn3)C(=O)O[C@]12C | ≤ 0.0625 | 32 (≈ 38.3 µM) | 8 (≈ 9.57 µM) | 8 (≈ 9.57 µM) | 2 (≈ 2.39 µM) | 1 (≈ 1.2 µM) | 1 (≈ 1.2 µM) | 32 (≈ 38.3 µM) | > 64 | 6.5 (≈ 7.77 µM) | 49 (≈ 0.0586 µM) | – | – | – | – | – | 4 | – | – | – |
| CC[C@H]1OC(=O)[C@@](C)(F)C(=O)[C@H](C)[C@@H](O[C@@H]2O[C@H](C)C[C@H](N(C)C)[C@H]2O)[C@](C)(OC)C[C@@H](C)C(=O)[C@H](C)[C@H]2N(CCCCn3cc(-c4cccc(NC(C)=O)c4)nn3)C(=O)O[C@]12C | 0.016 (≈ 0.018 µM) | > 128 | 64 (≈ 72.1 µM) | 64 (≈ 72.1 µM) | 4 (≈ 4.51 µM) | 4 (≈ 4.51 µM) | 8 (≈ 9.02 µM) | 64 (≈ 72.1 µM) | > 64 | 50 (≈ 56.4 µM) | 24 (≈ 0.0271 µM) | – | – | – | – | – | – | – | – | 4 - 8 |
| CC[C@H]1OC(=O)[C@H](C)[C@@H](O[C@H]2C[C@@](C)(OC)[C@@H](O)[C@H](C)O2)[C@H](C)[C@@H](O[C@@H]2O[C@H](C)C[C@H](N(C)C)[C@H]2O)[C@](C)(O)C[C@@H](C)CN(C)[C@H](C)[C@@H](O)[C@]1(C)O [AZITHROMYCIN] | – | – | – | – | – | – | – | – | – | – | 25000 (≈ 33.4 µM) | – | – | – | – | – | – | – | – | – |
| CC[C@H]1OC(=O)[C@H](C)[C@@H](O[C@H]2C[C@@](C)(OC)[C@@H](O)[C@H](C)O2)[C@H](C)[C@@H](O[C@@H]2O[C@H](C)C[C@H](N(C)C)[C@H]2O)[C@](C)(O)C[C@@H](C)C(=O)[C@H](C)[C@@H](O)[C@]1(C)O [ERYTHROMYCIN] | – | – | – | – | – | – | – | – | – | – | 12000 (≈ 16.4 µM) | – | – | – | – | – | – | – | – | – |
| CC[C@H]1OC(=O)[C@@](C)(F)C(=O)[C@H](C)[C@@H](O[C@@H]2O[C@H](C)C[C@H](N(C)C)[C@H]2O)[C@](C)(OC)C[C@@H](C)C(=O)[C@H](C)[C@H]2N(CCCCn3cc(-c4cccc(N)c4)nn3)C(=O)O[C@]12C [SOLITHROMYCIN] | 0.06 to 0.12 (≈ 0.071 to 0.142 µM) | 8 (≈ 9.47 µM) | 4 (≈ 4.73 µM) | 4 (≈ 4.73 µM) | 2 (≈ 2.37 µM) | 2 (≈ 2.37 µM) | 4 (≈ 4.73 µM) | > 32 | > 32 | 25 (≈ 29.6 µM) | 24 (≈ 0.0284 µM) | – | – | – | – | – | – | – | – | – |
